From US20200016159A1, “N3-CYCLICALLY SUBSTITUTED THIENOURACILS AND USE THEREOF” (Bayer Aktiengesellschaft, priority 2016, published 2020)
pIC50: −log10 of the molar value.

Each compound was assayed against T1, human adenosine A2b receptor (Homo sapiens, UniProt P29275) (assay: Cellular in vitro reporter gene test for A2b receptor activity (antagonism of NECA)). Conditions: recombinant CHO-K1 cells, CRE-luciferase reporter, co-incubation with EC50 concentration of NECA, 3 hours.
T1 sequence (P29275 1-332): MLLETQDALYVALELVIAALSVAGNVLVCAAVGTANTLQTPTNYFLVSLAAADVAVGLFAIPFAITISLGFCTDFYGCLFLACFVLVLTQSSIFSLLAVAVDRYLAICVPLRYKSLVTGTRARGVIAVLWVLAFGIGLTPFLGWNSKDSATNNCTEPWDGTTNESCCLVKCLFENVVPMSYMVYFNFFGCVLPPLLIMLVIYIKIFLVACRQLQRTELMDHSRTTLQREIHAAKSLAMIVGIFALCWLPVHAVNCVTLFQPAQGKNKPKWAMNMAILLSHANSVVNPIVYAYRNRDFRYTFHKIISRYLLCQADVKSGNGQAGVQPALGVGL
Type: cell-based
Design: expressed in transfected cells; host or cells: CHO-K1 (Chinese hamster ovary) with CRE-luciferase reporter
Procedure, shortened: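 Antagonism measured as block of NECA-induced, cAMP/CRE-dependent luciferase expression in recombinant A2b CHO-K1 cells. NECA used at the EC50 set in a pre-experiment on each test day; luminescence detected after 3 h. Reported as IC50, partly averaged and rounded to two significant figures.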

Structure (SMILES) | pIC50
Cc1c(CN2CCNC2=O)sc2c1c(=O)n(C1CC1C)c(=O)n2CCF (single isomer, unassigned) [Example 233, 1-(2-Fluoroethyl)-5-methyl-3-(2-methylcyclopropyl)-6-[(2-oxoimidazolidin-1-yl)methyl]thieno[2,3-d]pyrimidine-2,4(1H,3H)-dione] | 7.96
Cc1c(CN2CCNC2=O)sc2c1c(=O)n(C1CC1C)c(=O)n2CC(F)F (single isomer, unassigned) [Example 235, 1-(2,2-Difluoroethyl)-5-methyl-3-(2-methylcyclopropyl)-6-[(2-oxoimidazolidin-1-yl)methyl]thieno[2,3-d]pyrimidine-2,4(1H,3H)-dione] | 7.74
Cc1c(CN2CCNC2=O)sc2c1c(=O)n(C1CC1C)c(=O)n2CC(F)F (single isomer, unassigned) [Example 236, 1-(2,2-Difluoroethyl)-5-methyl-3-(2-methylcyclopropyl)-6-[(2-oxoimidazolidin-1-yl)methyl]thieno[2,3-d]pyrimidine-2,4(1H,3H)-dione] | 8.92
Cc1c(CN2CCNC2=O)sc2c1c(=O)n(C1CC1C)c(=O)n2CC(F)(F)F (single isomer, unassigned) [Example 238, 5-Methyl-3-(2-methylcyclopropyl)-6-[(2-oxoimidazolidin-1-yl)methyl]-1-(2,2,2-trifluoroethyl)thieno[2,3-d]pyrimidine-2,4(1H,3H)-dione] | 7.62
Cc1c(CN2CCNC2=O)sc2c1c(=O)n(C1CC1C)c(=O)n2CC(F)(F)F (single isomer, unassigned) [Example 239, 5-Methyl-3-(2-methylcyclopropyl)-6-[(2-oxoimidazolidin-1-yl)methyl]-1-(2,2,2-trifluoroethyl)thieno[2,3-d]pyrimidine-2,4(1H,3H)-dione] | 8.33
Cc1c(CN2CCNC2=O)sc2c1c(=O)n(C1CC1C)c(=O)n2CCC(F)(F)F (single isomer, unassigned) [Example 240, 5-Methyl-3-(2-methylcyclopropyl)-6-[(2-oxoimidazolidin-1-yl)methyl]-1-(3,3,3-trifluoropropyl)thieno[2,3-d]pyrimidine-2,4(1H,3H)-dione] | 8.62
Cc1c(CN2CCNC2=O)sc2c1c(=O)n(C1CC1C)c(=O)n2CCC(F)(F)F (single isomer, unassigned) [Example 241, 5-Methyl-3-(2-methylcyclopropyl)-6-[(2-oxoimidazolidin-1-yl)methyl]-1-(3,3,3-trifluoropropyl)thieno[2,3-d]pyrimidine-2,4(1H,3H)-dione] | 8.15
Cc1c(CN2CCNC2=O)sc2c1c(=O)n([C@H]1C[C@@H]1C)c(=O)n2CC1CC1(F)F (single isomer, unassigned) [Example 251] | 8.20
Cc1c(CN2CCNC2=O)sc2c1c(=O)n(C1CC1C)c(=O)n2CC1CC(F)(F)C1 (single isomer, unassigned) [Example 253, 1-[(3,3-Difluorocyclobutyl)methyl]-5-methyl-3-(2-methylcyclopropyl)-6-[(2-oxoimidazolidin-1-yl)methyl]thieno[2,3-d]pyrimidine-2,4(1H,3H)-dione] | 8.57
Cc1c(CN2CCNC2=O)sc2c1c(=O)n(C1CC1C)c(=O)n2CC1CC(F)(F)C1 (single isomer, unassigned) [Example 254, 1-[(3,3-Difluorocyclobutyl)methyl]-5-methyl-3-(2-methylcyclopropyl)-6-[(2-oxoimidazolidin-1-yl)methyl]thieno[2,3-d]pyrimidine-2,4(1H,3H)-dione] | 8.14
Cc1c(CN2CCNC2=O)sc2c1c(=O)n([C@H]1C[C@@H]1C)c(=O)n2CC1CCC(F)(F)C1 (single isomer, unassigned) [Example 256] | 8.26
Cc1c(CN2CCNC2=O)sc2c1c(=O)n([C@H]1C[C@@H]1C)c(=O)n2CC1CCC(F)(F)C1 (single isomer, unassigned) [Example 257] | 8.17
COCCn1c(=O)n(C2CC2C)c(=O)c2c(C)c(CN3CCNC3=O)sc21 (single isomer, unassigned) [Example 259, 1-(2-Methoxyethyl)-5-methyl-3-(2-methylcyclopropyl)-6-[(2-oxoimidazolidin-1-yl)methyl]thieno[2,3-d]pyrimidine-2,4(1H,3H)-dione] | 8.39
Cc1c(CN2CCNC2=NC#N)sc2c1c(=O)n(C1CC1C)c(=O)n2CCOC(F)(F)F (single isomer, unassigned) [Example 265, [1-({5-Methyl-3-(2-methylcyclopropyl)-2,4-dioxo-1-[2-(trifluoromethoxy)ethyl]-1,2,3,4-tetrahydrothieno[2,3-d]pyrimidin-6-yl}methyl)imidazolidin-2-ylidene]cyanamide] | 8.89
Cc1c(CN2CCNC2=NC#N)sc2c1c(=O)n(C1CC1C)c(=O)n2CCOC(F)(F)F (single isomer, unassigned) [Example 266, [1-({5-Methyl-3-(2-methylcyclopropyl)-2,4-dioxo-1-[2-(trifluoromethoxy)ethyl]-1,2,3,4-tetrahydrothieno[2,3-d]pyrimidin-6-yl}methyl)imidazolidin-2-ylidene]cyanamide] | 9.02
COC(=O)N=C1NCCN1Cc1sc2c(c1C)c(=O)n(C1CC1C)c(=O)n2CCOC(F)(F)F (single isomer, unassigned) [Example 269, Methyl [1-({5-methyl-3-(2-methylcyclopropyl)-2,4-dioxo-1-[2-(trifluoromethoxy)ethyl]-1,2,3,4-tetrahydrothieno[2,3-d]pyrimidin-6-yl}methyl)imidazolidin-2-ylidene]carbamate] | 8.70

More lines, in order of rising pIC50, values ahead:

pIC50 | Structure (SMILES)
7.09 | COCCn1c(=O)n(C2CC2C)c(=O)c2c(C)c(CN3CCNC3=O)sc21 (single isomer, unassigned) [Example 260, 1-(2-Methoxyethyl)-5-methyl-3-(2-methylcyclopropyl)-6-[(2-oxoimidazolidin-1-yl)methyl]thieno[2,3-d]pyrimidine-2,4(1H,3H)-dione]
7.66 | Cc1c(CN2CCNC2=O)sc2c1c(=O)n(C1CC1C)c(=O)n2CCC(F)(F)C(F)F (single isomer, unassigned) [Example 246, 5-Methyl-3-(2-methylcyclopropyl)-6-[(2-oxoimidazolidin-1-yl)methyl]-1-(3,3,4,4-tetrafluorobutyl)thieno[2,3-d]pyrimidine-2,4(1H,3H)-dione]
8.08 | Cc1c(CN2CCNC2=O)sc2c1c(=O)n(C1CC1C)c(=O)n2CCCC(F)(F)F (single isomer, unassigned) [Example 243, 5-Methyl-3-(2-methylcyclopropyl)-6-[(2-oxoimidazolidin-1-yl)methyl]-1-(4,4,4-trifluorobutyl)thieno[2,3-d]pyrimidine-2,4(1H,3H)-dione]
8.46 | Cc1c(CN2CCNC2=O)sc2c1c(=O)n(C1CC1C)c(=O)n2CCC(F)(F)C(F)F (single isomer, unassigned) [Example 247, 5-Methyl-3-(2-methylcyclopropyl)-6-[(2-oxoimidazolidin-1-yl)methyl]-1-(3,3,4,4-tetrafluorobutyl)thieno[2,3-d]pyrimidine-2,4(1H,3H)-dione]
8.48 | Cc1c(CN2CCNC2=O)sc2c1c(=O)n(C1CC1C)c(=O)n2CCCC(F)(F)F (single isomer, unassigned) [Example 244, 5-Methyl-3-(2-methylcyclopropyl)-6-[(2-oxoimidazolidin-1-yl)methyl]-1-(4,4,4-trifluorobutyl)thieno[2,3-d]pyrimidine-2,4(1H,3H)-dione]
8.82 | COC(=O)N=C1NCCN1Cc1sc2c(c1C)c(=O)n(C1CC1C)c(=O)n2CCOC(F)(F)F (single isomer, unassigned) [Example 268, Methyl [1-({5-methyl-3-(2-methylcyclopropyl)-2,4-dioxo-1-[2-(trifluoromethoxy)ethyl]-1,2,3,4-tetrahydrothieno[2,3-d]pyrimidin-6-yl}methyl)imidazolidin-2-ylidene]carbamate]
8.85 | Cc1c(Cn2cc[nH]c2=O)sc2c1c(=O)n(C1CC1C)c(=O)n2CCOC(F)(F)F (single isomer, unassigned) [Example 271, 5-Methyl-3-(2-methylcyclopropyl)-6-[(2-oxo-2,3-dihydro-1H-imidazol-1-yl)methyl]-1-[2-(trifluoromethoxy)ethyl]thieno[2,3-d]pyrimidine-2,4(1H,3H)-dione]
8.92 | Cc1c(CN2CCNC2=O)sc2c1c(=O)n(C1CC1C)c(=O)n2CCOC(F)(F)F (single isomer, unassigned) [Example 262, 5-Methyl-3-(2-methylcyclopropyl)-6-[(2-oxoimidazolidin-1-yl)methyl]-1-[2-(trifluoromethoxy)ethyl]thieno[2,3-d]pyrimidine-2,4(1H,3H)-dione]
8.96 | Cc1c(CN2CCNC2=O)sc2c1c(=O)n([C@H]1C[C@@H]1C)c(=O)n2CC1CC1(F)F (single isomer, unassigned) [Example 250]
8.96 | Cc1c(CN2CCNC2=O)sc2c1c(=O)n(C1CC1C)c(=O)n2CCOC(F)(F)F (single isomer, unassigned) [Example 263, 5-Methyl-3-(2-methylcyclopropyl)-6-[(2-oxoimidazolidin-1-yl)methyl]-1-[2-(trifluoromethoxy)ethyl]thieno[2,3-d]pyrimidine-2,4(1H,3H)-dione]
